Source: patent publication US11851459B2, “Methods and uses of modulators of anaphase promoting complex (APC) activity for treating cancer” (University of Saskatchewan, priority 2018, dated 2023)
“Also recorded” adds a separate entry of the source.

Key:
[1] = target: T1, Apc5 (Saccharomyces cerevisiae, UniProt Q08683); test: Yeast 2-hybrid (Y2H) assay, Apc5 bait; assay type: binding
T1 construct: expressed in transfected cells; host or cells: yeast Y2H cells
T1 sequence (Q08683 1-685): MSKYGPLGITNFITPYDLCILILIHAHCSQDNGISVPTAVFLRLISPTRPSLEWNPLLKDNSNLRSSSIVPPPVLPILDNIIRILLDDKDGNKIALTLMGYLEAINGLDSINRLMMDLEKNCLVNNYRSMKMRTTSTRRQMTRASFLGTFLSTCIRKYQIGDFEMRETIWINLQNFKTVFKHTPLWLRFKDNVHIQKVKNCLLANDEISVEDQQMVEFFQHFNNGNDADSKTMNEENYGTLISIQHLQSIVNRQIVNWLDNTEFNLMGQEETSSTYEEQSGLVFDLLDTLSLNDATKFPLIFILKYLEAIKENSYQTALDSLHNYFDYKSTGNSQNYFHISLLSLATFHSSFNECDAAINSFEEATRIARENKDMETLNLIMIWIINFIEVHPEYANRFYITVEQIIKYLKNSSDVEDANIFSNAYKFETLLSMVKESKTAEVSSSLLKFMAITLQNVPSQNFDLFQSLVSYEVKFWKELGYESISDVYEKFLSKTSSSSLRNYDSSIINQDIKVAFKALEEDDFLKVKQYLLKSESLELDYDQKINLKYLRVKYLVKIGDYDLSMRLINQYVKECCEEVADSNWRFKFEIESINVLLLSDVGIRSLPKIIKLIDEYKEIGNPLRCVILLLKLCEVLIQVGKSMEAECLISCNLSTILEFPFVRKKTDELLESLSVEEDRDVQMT
Method: (§1) The reverse genetic screen utilized a yeast 2-hybrid (Y2H) protocol that selected for peptides that bound to the APC subunits Apc5 or Apc10 (see FIG. 8 for APC structure), to assess whether peptide-binding might modify APC function. Peptides that bound APC subunits were then assayed for those that suppressed APC mutant defects.
(§2) To identify peptides that bound to either Apc5 or Apc10 proteins using a yeast 2-hybrid (Y2H) screen, random small peptides were cloned into the TrxA scaffold (library provided by R. Geyer; FIG. 9) and expressed from a galactose-inducible Y2H prey vector in cells harboring either the APC5 or APC10 genes cloned into the Y2H bait vectors (APC5/APC10 bait constructs complement APC mutant defects).
(§3) Over 100 peptides that bound either Apc5 or Apc10 were recovered from millions screened. Six peptides that reproducibly interacted with the Apc5 or Apc10 bait construct in Y2H assays were examined further. Vectors expressing these 6 peptides were transformed into WT or APC mutant cells and assessed for ts growth.

[2] = test system: apc5 temperature sensitive mutant and/or apc10Δ mutant; test: Viability of APC mutant yeast (spot dilution); assay type: cell-based
Excerpt: Suitable APC activators also include APC activators that increase the cell viability of an wild-type and/or an APC mutant cell by at least 10%, at least 20%, at least 30%, at least 40%, at least 50%, at least 60%, at least 70% or at least 80% compared to a cell with wild-type APC function. […] Examples of yeast cells with defective APC function include apc5 and apc10 mutants. An example of an apc5 mutant is the apc5 temperature sensitive mutant described herein. An example of an apc10 mutant is the apc10 deletion mutant described herein. Viability of a yeast mutant can be measured for example, by the spot dilution assays described herein or any other method known in the art.
as §1, §3

[3] = test system: APC (substrates Cyclin B, Securin, Cdc20, HURP); test: APC substrate westerns in MDA-MB-231 cells expressing peptides; assay type: cell-based, human; details: for levels of the APC substrate HURP: MDA-MB-231 stably transfected, normalized to tubulin; for levels of the APC substrate CDC20: MDA-MB-231 stably expressing peptides
Method: (§4) A. Transient transfection of the C43-4 peptide plasmid into human triple negative MDA-MB-231 breast cancer cells followed by Western blot analysis of lysates against Cyclin B, Securin and Cdc20 showing enhanced protein loss. B. Cells in A were treated with DOX (1 uM) for 48 hrs with cell viability measured using an MTT assay kit. The experiment was done in triplicate with standard error of the means shown.
(§5) A. Stable integration of C43-4 in MDA-MB-231 cells was established by selection of transfected cells on Geneticin for 7 days. Westerns against APC substrates show APC activation. B. Cells in A were treated with DOX (1 uM) for 48 hrs with cell viability measured using an MTT assay kit. Mean and SEM of 3 biological repeats.
(§6) A. TNBC MDA-MB-231 cells stably expressing APC binding peptides activate the APC. Cells were grown to confluence and then used to prepare protein lysates. The lysates were used to measure levels of the APC substrate CDC20, which will be reduced if the APC is activated. Cells stably expressing the pcDNA empty vector were used as a control. B. In a similar experiment, MDA-MB-231 cells stably expressing the APC binding peptides shown, or the empty vector control, were used to measure protein levels of the APC substrate HURP using Westerns. C. Triplicate blots as in B were scanned, normalized to tubulin and plotted. Error of the mean is shown. Significant changes are indicated. D. MDA-MB-231 cells stably expressing the empty pcDNA vector, or the C43-4 and C13-3 APC binding peptides, were treated with 1 μM Doxorubicin for 24 hrs. Cell viability was measured using an MTT viability assay.
The C43-4 peptide sequence was cloned into the human expression vector pcDNA. This construct was transiently, and stably, expressed in human breast cancer cell line MDA-MB-231. […] In 231 cells, which are triple negative, aggressive and somewhat resistant to Doxorubicin, the transiently and stably transfected C43-4 peptide resensitized them to DOX treatment (FIGS. 22B and 23B).
(§7) In FIG. 26B, MDA-MB-231 cells were also stably transfected with the peptides C1-8, C2-4B, C3-1B, and C9-5. Levels of the APC substrate HURP were measured in lysates prepared from these cells. […] The empty vector pcDNA was also stably expressed in 231 cells and used as a control.

[4] = test system: APC; test: Yeast 2-hybrid assay for binding the APC
Method: as §1, §2

[5] = test system: apc5^CA temperature sensitive mutant; test: Forward genetic screen, rescue of apc5^CA ts growth; assay type: cell-based, yeast; details: restrictive temperature
Excerpt: Using a forward genetic screen to test whether temperature sensitive (ts) APC mutants expressing random small peptides could grow at restrictive temperatures, millions of small peptides were rapidly screened for those that could restore mutant APC phenotypes. Peptides that rescued the apc5^CA ts (temperature sensitive) defect were recovered including peptides Y65 and Y36.
In the forward screens, with galactose-inducible TrxA-based peptide libraries, in cells harboring the apc5^CA ts allele, over 200 peptides (from millions screened) suppressed the ts phenotype. Several recovered plasmids were sequenced.

[6] = test system: MDA-MB-231 cells; test: Scratch assay, migration of MDA-MB-231 cells; assay type: cell-based, human
Method: A. An equal number of MDA-MB-231 TNBC cells were grown to confluence in 6 well plates. The cells were then treated with increasing doses of metformin (0, 1, 5 and 10 mM) and a scratch was made in the cell lawn creating a void. At the times shown the number of cell that migrated into the void were counted. The experiment was repeated twice. B. WT MDA-MB-231 cells and cells stably expressing the C43-4 plasmid were grown as in A. Control cells were left untreated, with other cells treated with the DMSO control, 1 uM DOX or 2.5 uM M2I-1. A void was created in the cell lawn and the number of cells that entered the void were scored as above. This experiment was repeated 4 times. This experiment was also repeated 4 times in an independently generated stable C43-4 cell line with similar results. The error of the mean is shown. C. WT and MDA-MB-231 cells stably expressing the C2-4B peptide plasmid were used for the scratch assay as described above. D. WT and MDA-MB-231 cells stably expressing the C13-3 peptide plasmid were used for the scratch assay as described above. The experiments in C and D were only performed once.
Assays using WT and C43-4 expressing cells have been done 4 times. Assays using C13-3 and C2-4B cells have only been conducted once. Metformin treated cells have been used twice. For scratch assays, a scratch is made down a confluent plate of cells, leaving a void. The number of cells that migrate back into the void over time is determined.

[7] = target: T2, Cin5 (Saccharomyces cerevisiae, UniProt P40917); test: Yeast 2-hybrid with Y65 as bait to identify binding partners
T2 construct: expressed in transfected cells; host or cells: yeast Y2H cells
T2 sequence (P40917 1-295): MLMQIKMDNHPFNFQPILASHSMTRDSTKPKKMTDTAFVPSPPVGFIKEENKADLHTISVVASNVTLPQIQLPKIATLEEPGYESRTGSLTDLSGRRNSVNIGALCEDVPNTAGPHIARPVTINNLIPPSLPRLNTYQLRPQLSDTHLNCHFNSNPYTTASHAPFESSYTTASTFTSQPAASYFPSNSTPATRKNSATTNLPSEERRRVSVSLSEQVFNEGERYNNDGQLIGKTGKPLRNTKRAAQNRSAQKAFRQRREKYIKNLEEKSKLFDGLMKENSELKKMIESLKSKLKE
Excerpt: One peptide in particular, Y65, was of interest because it had homology to Elongin C (Elc1; Y65 is 20 amino acids in length, with a 7 residue stretch sharing 86% identity and 100% similarity with Elc1). Elc1 is a ubiquitin-protein ligase (E3) conserved among eukaryotes that is involved in DNA repair (Harreman et al, 2009; Ribar et al, 2007). To identify what the peptides bound in order to modify APC activity, Y65 was cloned into the Y2H bait vector and used to identify binding partners.

[8] = target: T3, Apc10 (Saccharomyces cerevisiae, UniProt P53068); test: Yeast 2-hybrid (Y2H) assay, Apc10 bait; assay type: binding
T3 construct: expressed in transfected cells; host or cells: yeast Y2H cells
T3 sequence (P53068 1-250): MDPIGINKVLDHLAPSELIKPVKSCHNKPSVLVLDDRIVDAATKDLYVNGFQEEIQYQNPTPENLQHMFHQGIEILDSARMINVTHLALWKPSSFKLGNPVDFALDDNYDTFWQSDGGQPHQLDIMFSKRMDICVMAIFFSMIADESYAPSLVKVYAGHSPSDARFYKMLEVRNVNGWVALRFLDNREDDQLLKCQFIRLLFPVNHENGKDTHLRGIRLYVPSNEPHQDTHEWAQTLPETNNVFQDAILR
Method: as §1
A library of random small peptides were cloned into a Thioredoxin (Trx) scaffold (see FIG. 9 for Trx-peptide structure) and expressed from a galactose-inducible Y2H prey vector in cells expressing the Apc10 bait vector (the modified Apc10 is still part of the complete APC complex). Six peptides that reproducibly interacted with the Apc10 bait construct in Y2H assays were identified (FIG. 1A) and were examined further. Cells will only grow in this assay if the peptide interacts with Apc5 or Apc10.
as §2, §3

[9] = test system: MDA-MB-231 cells; test: DOX sensitivity, MTT viability assay, MDA-MB-231 cells expressing peptides; assay type: cell-based, human; details: stably transfected, 1 uM Doxorubicin 24 hours
Method: as §4, §5, §6, §7

Q: For SKWTWRMCMSWTVDRFAPVPWP [C24-1], which “binds Apc5 in a yeast 2 hybrid assay” value [1] is on record?
A: The value was “Binds Apc5”.

Q: What about the “viability of an APC mutant” value [2] of the same molecule?
A: The value was “increases the viability of an APC mutant”.

Q: Which “levels of the APC substrate HURP” value [3] does the source give for FCL (FLC) [C1-8] here?
A: Its value is “did not reduce”.

Q: With SWLNGSGGVVLWLFSNFCCG [Y36] as the molecule, how does the “bind the APC in a yeast 2HY assay” value [4] read?
A: The value was “not bind the APC in a yeast”.

Q: And the “apc5^CA temperature sensitive (ts) growth / viability” value [5]?
A: Its value is “increases the viability; also recorded: rescued; also recorded: Rescues apc5^CA temperature”.

Q: COc1cccc2c1C(=O)c1c(O)c3c(c(O)c1C2=O)C[C@@](O)(C(=O)CO)C[C@@H]3O[C@H]1C[C@H](N)[C@H](O)[C@H](C)O1 [Doxorubicin, reference compound] was tested. Which “metastatic potential / in vitro migration” value [6] did it give?
A: Its value is “blocked”.

Q: VRQKSDKEYERVLGLGLRRL [Y65] was tested. Which “bind the APC in a yeast 2HY assay” value [4] did it give?
A: Its value is “not bind the APC in a yeast”.

Q: What about the “Interacts with Cin5 in a yeast 2 hybrid assay” value [7] of the same molecule?
A: Its value is “One peptide binding partner was isolated, Cin5”.

Q: What about the “apc5^CA temperature sensitive (ts) growth / viability” value [5] of the same molecule?
A: The value was “increases the viability; also recorded: rescued; also recorded: Rescues apc5^CA temperature”.

Q: PVNGERWAP [C3-1B] was tested. Which “binds Apc10 in a yeast 2 hybrid assay” value [8] did it give?
A: The value was “Binds Apc10”.

Q: What about the “levels of the APC substrate HURP” value [3] of the same molecule?
A: Its value is “Only C1-8 did not reduce HURP levels”.

Q: For GALKEVCICIVESVGGEVFS [C13-3], which “binds Apc5 in a yeast 2 hybrid assay” value [1] is on record?
A: Its value is “Binds Apc5”.

Q: What about the “viability of an APC mutant” value [2] of the same molecule?
A: The value was “increases the viability of an APC mutant”.

Q: What about the “levels of the APC substrate CDC20” value [3] of the same molecule?
A: Its value is “reduce levels”.

Q: And the “synergy with Doxorubicin (killing effect)” value [9]?
A: The value was “synergize”.

Q: And the “metastatic potential / in vitro migration” value [6]?
A: The value was “inhibit the in vitro migration”.

Q: CECLETETFHPITRHLIVPV [C9-5] was tested. Which “binds Apc5 in a yeast 2 hybrid assay” value [1] did it give?
A: Its value is “Binds Apc5”.

Q: What about the “viability of an APC mutant” value [2] of the same molecule?
A: Its value is “increases the viability of an APC mutant”.

Q: What about the “levels of the APC substrate HURP” value [3] of the same molecule?
A: The value was “Only C1-8 did not reduce HURP levels”.

Q: RRCLSIRTENLAWEGKFLRV [C50-1] was tested. Which “binds Apc10 in a yeast 2 hybrid assay” value [8] did it give?
A: The value was “Binds Apc10”.

Q: And the “viability of an APC mutant” value [2]?
A: The value was “increases the viability of an APC mutant”.

Q: For PSYNTIKYHETHGGRHPRRQRKRPI [C3-1], which “binds Apc10 in a yeast 2 hybrid assay” value [8] is on record?
A: The value was “Binds Apc10”.

Q: What about the “viability of an APC mutant” value [2] of the same molecule?
A: Its value is “increases the viability of an APC mutant”.

Q: And the “levels of the APC substrate CDC20” value [3]?
A: Its value is “reduce levels”.
